The values below come from patent publication US9181277B2, “Aminoquinazoline derivatives and their salts and methods of use” (SUNSHINE LAKE PHARMA CO., LTD., priority 2011, dated 2015).

By IC50 is commonly meant the concentration at which inhibition is half-maximal.

Bounds are passed on as bounds.

EGFR Kinase, sequence (P00533 25-1210): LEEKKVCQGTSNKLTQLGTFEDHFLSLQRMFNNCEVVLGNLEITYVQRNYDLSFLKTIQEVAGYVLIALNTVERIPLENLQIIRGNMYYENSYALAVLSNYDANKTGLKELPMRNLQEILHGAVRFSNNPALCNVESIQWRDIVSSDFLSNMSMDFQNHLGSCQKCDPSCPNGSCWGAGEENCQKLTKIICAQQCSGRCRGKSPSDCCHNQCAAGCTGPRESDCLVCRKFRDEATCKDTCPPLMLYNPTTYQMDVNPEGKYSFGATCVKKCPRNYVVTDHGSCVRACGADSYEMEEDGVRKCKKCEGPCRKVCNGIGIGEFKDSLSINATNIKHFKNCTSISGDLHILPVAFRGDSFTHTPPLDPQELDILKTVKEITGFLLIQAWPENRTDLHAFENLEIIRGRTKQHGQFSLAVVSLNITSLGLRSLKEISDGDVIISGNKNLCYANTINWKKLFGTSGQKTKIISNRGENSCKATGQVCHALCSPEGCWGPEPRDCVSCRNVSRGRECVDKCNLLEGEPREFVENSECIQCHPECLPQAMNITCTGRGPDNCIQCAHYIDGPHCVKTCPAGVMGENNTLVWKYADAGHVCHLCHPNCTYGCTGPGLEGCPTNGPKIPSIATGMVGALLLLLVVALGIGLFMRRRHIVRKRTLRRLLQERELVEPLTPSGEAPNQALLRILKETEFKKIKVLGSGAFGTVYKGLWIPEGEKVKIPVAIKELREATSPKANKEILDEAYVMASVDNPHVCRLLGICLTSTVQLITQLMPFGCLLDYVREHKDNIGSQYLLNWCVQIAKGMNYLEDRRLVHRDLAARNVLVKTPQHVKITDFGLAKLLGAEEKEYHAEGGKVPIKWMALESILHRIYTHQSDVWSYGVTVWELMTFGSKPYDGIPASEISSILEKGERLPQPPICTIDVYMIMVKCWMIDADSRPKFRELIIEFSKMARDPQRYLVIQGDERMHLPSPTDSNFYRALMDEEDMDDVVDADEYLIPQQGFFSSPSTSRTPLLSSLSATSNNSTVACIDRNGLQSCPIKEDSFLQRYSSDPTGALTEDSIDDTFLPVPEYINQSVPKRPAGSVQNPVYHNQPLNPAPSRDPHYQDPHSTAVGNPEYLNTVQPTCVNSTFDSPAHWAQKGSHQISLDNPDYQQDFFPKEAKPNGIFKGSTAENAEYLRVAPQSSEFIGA

This test addresses EGFR Kinase (Homo sapiens, UniProt P00533). As to the kind of experiment: EGFR inhibitory activity test (HTRF kinEASE STK S1 kinase assay). It is filed as biochemical. Conditions: replicate wells, read-out: IC50(nM), Inhibitory Activity of Compounds on EGFR Kinase. The procedure: In a pilot study, the compounds disclosed herein were screened for their EGFR inhibitory activity. The Cisbio Research Product HTRF kinEASE STK S1 kinase assay/inhibitor screening Kit, can detect the generation of the phosphorylated substrate. Kinase, biotinylated substrate and ATP were first added into buffer solution, and the phosphorylated biotinylated substrates were formed by enzyme reaction. Then, to the above solution was added europium-labeled anti-phospho-site specific antibodies and XL665-labeled avidin. The Specific combinations of antibody with antigen, and biotin with avidin, bring the europium and XL665 closer together and resonance energy transferred. The signals at 620 nm and 665 nm were detected, and the activity of the kinase was evaluated by the ratio of the two signals value.
Take `COc1cc2ncnc(Nc3ccc(F)c(Cl)c3)c2cc1OCCCN1CCCC2CNCC21` (stereo not shown) [Example 26, N-(3-chloro-4-fluorophenyl)-7-methoxy-6-(3-(octahydro-1H-pyrrolo[3,4-b]pyridin-1-yl)propoxy) quinazolin-4-amine]: the IC50 was 0.001 to 0.1 nM.

`COc1cc2ncnc(Nc3ccc(F)c(Cl)c3)c2cc1OCCCN1CCc2noc(C)c2C1` [Example 24, N-(3-chloro-4-fluorophenyl)-7-methoxy-6-(3-(3-methyl-6,7-dihydroisoxazolo[4,3-c]pyridin-5(4H)-yl)propoxy)quinazolin-4-amine]: the IC50 fell in the range of 0.001 to 0.1 nM.

For `COc1cc2ncnc(Nc3ccc(F)c(Cl)c3)c2cc1OCCCN1CC2CCOCC2C1` (stereo not shown) [Example 23, N-(3-chloro-4-fluorophenyl)-6-(3-(hexahydropyrano[3,4-c]pyrrol-2(3H)-yl)propoxy)-7-methoxyquinazolin-4-amine], the IC50 lay within 1 to 10 nM.

As to `COc1cc2ncnc(Nc3ccc(F)c(Cl)c3)c2cc1OCCCN1CC2CCOC(=O)C2C1` (stereo not shown) [Example 20, 2-(3-((4-((3-chloro-4-fluorophenyl)amino)-7-methoxyquinazolin-6-yl)oxy)propyl)hexahydropyrano[3,4-c]pyrrol-4(2H)-one], the 50% inhibitory concentration (IC50) was 0.001 to 0.1 nM.

For `C#Cc1cccc(Nc2ncnc3cc(OC)c(OCCCN4CC5OCCOC5C4)cc23)c1` (stereo not shown) [Example 8, N-(3-ethynylphenyl)-7-methoxy-6-(3-(tetrahydro-2H-[1,4]dioxino[2,3-c]pyrrol-6(3H)-yl)propoxy)quinazolin-4-amine], the IC50 was 0.001 to 0.1 nM.

In the case of `COc1cc2ncnc(Nc3ccc(F)c(Cl)c3)c2cc1OCCCN1CC2CCCC2C1` (stereo not shown) [Example 21, N-(3-chloro-4-fluorophenyl)-6-(3-(hexahydrocyclopenta[c]pyrrol-2(1H)-yl)propoxy)-7-methoxyquinazolin-4-amine], the IC50 lay within 0.001 to 0.1 nM.

With `COc1cc2ncnc(Nc3ccc(F)c(Cl)c3)c2cc1OCCCN1CCCC2CN(C)CC21` (stereo not shown) [Example 27, N-(3-chloro-4-fluorophenyl)-7-methoxy-6-(3-(6-methyloctahydro-1H-pyrrolo[3,4-b]pyridin-1-yl)propoxy)quinazolin-4-amine], the IC50 was in the range of 0.001 to 0.1 nM.

As for `COc1cc2ncnc(Nc3ccc(F)c(Cl)c3)c2cc1OCCCN1CCC2CCNCC2C1` (stereo not shown) [Example 33, N-(3-chloro-4-fluorophenyl)-7-methoxy-6-(3-(octahydro-2,7-naphthyridin-2(1H)-yl)propoxy) quinazolin-4-amine], the IC50 lay in the range of 0.001 to 0.1 nM.

Regarding `CCc1nnc2n1CCN(CCCOc1cc3c(Nc4ccc(F)c(Cl)c4)ncnc3cc1OC)C2` [Example 2, N-(3-chloro-4-fluorophenyl)-6-(3-(3-ethyl-5,6-dihydro-[1,2,4]triazolo[4,3-a]pyrazin-7(8H)-yl)propoxy)-7-methoxyquinazolin-4-amine], the IC50 was greater than 10 nM.

For `COc1cc2ncnc(Nc3ccc(F)c(Cl)c3)c2cc1OCCCN1CC2CCCNC2C1` (stereo not shown) [Example 25, N-(3-chloro-4-fluorophenyl)-6-(3-(hexahydro-1H-pyrrolo[3,4-b]pyridin-6(2H)-yl)propoxy)-7-methoxyquinazolin-4-amine], the IC50 fell in the range of 0.001 to 0.1 nM.

In the case of `CCN1CCCC2CN(CCCOc3cc4c(Nc5ccc(F)c(Cl)c5)ncnc4cc3OC)CC21` (stereo not shown) [Example 34, N-(3-chloro-4-fluorophenyl)-6-(3-(1-ethylhexahydro-1H-pyrrolo[3,4-b]pyridin-6(2H)-yl)propoxy)-7-methoxyquinazolin-4-amine], the IC50 is 0.001 to 0.1 nM.

For the compound `COc1cc2ncnc(Nc3ccc(F)c(Cl)c3)c2cc1OCCCN1CCn2c(nnc2C(F)(F)F)C1` [Example 1, N-(3-chloro-4-fluorophenyl)-7-methoxy-6-(3-(3-(trifluoromethyl)-5,6-dihydro-[1,2,4]triazolo[4,3-a]pyrazin-7(8H)-yl)propoxy)quinazolin-4-amine], the IC50 lay in the range of 1 to 10 nM.

As for `COc1cc2ncnc(Nc3ccc(Br)cc3F)c2cc1OCCCN1CC2OCCOC2C1` (stereo not shown) [Example 10, N-(4-bromo-2-fluorophenyl)-7-methoxy-6-(3-(tetrahydro-2H-[1,4]dioxino[2,3-c]pyrrol-6(3H)-yl)propoxy)quinazolin-4-amine], the IC50 is greater than 10 nM.
